Experimental data published in ChEMBL document CHEMBL5244273, “Tuberculosis: An Overview of the Immunogenic Response, Disease Progression, and Medicinal Chemistry Efforts in the Last Decade toward the Development of Potential Drugs for Extensively Drug-Resistant Tuberculosis Strains” (J Med Chem, 2021).
Values after ≈ are worked out from the molar mass of the structure shown.

Tests used:
[1] = Cytotoxicity against Chinese hamster CHO-K1 cells assessed as inhibition of cell growth; assay type: toxicity, cell-based, Cricetulus griseus
[2] = Selectivity index, ratio of IC50 for cytotoxicity against Chinese hamster CHO-K1 cells to MIC for antimycobacterial activity against Mycobacterium tuberculosis H37Rv; assay type: toxicity, cell-based; settings: read-out: Selectivity Index
[3] = system: Mycobacterium tuberculosis; test: Antimycobacterial activity against Mycobacterium tuberculosis H37Rv; assay type: functional
MCF7 = test: Cytotoxicity against human MCF7 cells assessed as cell growth inhibition; assay type: functional
[4] = Selectivity index, ratio of GI50 for cytotoxicity against human HeLa cells to MIC for antitubercular activity against active stage of Mycobacterium tuberculosis H37Ra; assay type: toxicity, cell-based; settings: read-out: Selectivity Index
[5] = Cytotoxicity against HUVEC cells assessed as cell growth inhibition; assay type: toxicity, cell-based; settings: human
[6] = Selectivity index, ratio of GI50 for cytotoxicity against human MCF7 cells to MIC for antitubercular activity against dormant stage of Mycobacterium tuberculosis H37Ra; assay type: toxicity, cell-based; settings: read-out: Selectivity Index
[7] = Selectivity index, ratio of GI50 for cytotoxicity against HUVEC cells to MIC for antitubercular activity against dormant stage of Mycobacterium tuberculosis H37Ra; assay type: toxicity, cell-based; settings: human, read-out: Selectivity Index
HeLa = test: Cytotoxicity against human HeLa cells assessed as cell growth inhibition; assay type: functional
[8] = Selectivity index, ratio of GI50 for cytotoxicity against human MCF7 cells to MIC for antitubercular activity against active stage of Mycobacterium tuberculosis H37Ra; assay type: toxicity, cell-based; settings: read-out: Selectivity Index
[9] = Selectivity index, ratio of GI50 for cytotoxicity against human HeLa cells to MIC for antitubercular activity against dormant stage of Mycobacterium tuberculosis H37Ra; assay type: toxicity, cell-based; settings: read-out: Selectivity Index
[10] = Selectivity index, ratio of GI50 for cytotoxicity against HUVEC cells to MIC for antitubercular activity against active stage of Mycobacterium tuberculosis H37Ra; assay type: toxicity, cell-based; settings: human, read-out: Selectivity Index
[11] = system: Mycobacterium tuberculosis; test: Antitubercular activity against dormant stage of Mycobacterium tuberculosis H37Ra; assay type: functional
[12] = system: Mycobacterium tuberculosis; test: Antitubercular activity against active stage of Mycobacterium tuberculosis H37Ra; assay type: functional
[13] = system: Mycobacterium tuberculosis; test: Antimycobacterial activity against Mycobacterium tuberculosis H37Rv […]; assay type: functional
[14] = Cytotoxicity against HEK293T cells assessed as reduction in cell viability; assay type: toxicity, cell-based, HEK-293T; settings: human

Sc1nnc(-c2ccc(I)cc2)o1
IC50 [1]: 46.7 µg/mL (≈ 154 µM) | selectivity ratio [2]: 51.8 | MIC [3]: 0.9 µg/mL (≈ 2.96 µM)

O=C(OCC(Cl)(Cl)Cl)c1ccsc1NC(=O)[C@@H]1CCCN1
GI50 (MCF7): > 250 µg/mL | selectivity ratio [4]: > 12.3 | GI50 [5]: > 250 µg/mL | selectivity ratio [6]: > 15.5 | selectivity ratio [7]: > 15.5 | GI50 (HeLa): > 250 µg/mL | selectivity ratio [8]: > 12.3 | selectivity ratio [9]: > 15.5 | selectivity ratio [10]: > 12.3 | MIC [11]: 16.1 µg/mL (≈ 43.3 µM) | MIC [12]: 20.4 µg/mL (≈ 54.9 µM)

CC(=O)N1/C(=C/c2ccc(Br)cc2)C(=O)c2ccccc21
MIC90 [3]: 0.31 µM (≈ 0.106 µg/mL) | MIC99 [3]: 0.37 µM (≈ 0.127 µg/mL) | MIC [13]: 15.2 µM (≈ 5.2 µg/mL)

O=C1CC[C@@H](COC(=O)c2ccsc2NC(=O)[C@@H]2CCCN2)N1
GI50 (MCF7): 148 µg/mL (≈ 437 µM) | selectivity ratio [4]: 20.2 | GI50 [5]: 88.6 µg/mL (≈ 263 µM) | selectivity ratio [6]: 22.1 | selectivity ratio [7]: 13.3 | GI50 (HeLa): 191 µg/mL (≈ 566 µM) | selectivity ratio [8]: 15.6 | selectivity ratio [9]: 28.6 | selectivity ratio [10]: 9.36 | MIC [11]: 6.67 µg/mL (≈ 19.8 µM) | MIC [12]: 9.46 µg/mL (≈ 28 µM)

CC(=O)N1/C(=C/c2ccc(-c3ccc(Cl)cc3)cc2)C(=O)c2ccccc21
CC50 [14]: 7 µM | MIC90 [3]: 2.32 µM (≈ 0.867 µg/mL) | MIC99 [3]: 4.05 µM (≈ 1.51 µg/mL) | MIC [13]: 8.37 µM (≈ 3.13 µg/mL)

CC(=O)N1/C(=C/c2ccc(-c3ccc(OC(F)(F)F)cc3)cc2)C(=O)c2ccccc21
CC50 [14]: 8 µM | MIC90 [3]: 1.44 µM (≈ 0.61 µg/mL) | MIC99 [3]: 3.19 µM (≈ 1.35 µg/mL)

CC(=O)N1/C(=C/c2ccccc2)C(=O)c2cc(-c3ccccc3)ccc21
CC50 [14]: 12 µM | MIC90 [3]: 1.24 µM (≈ 0.421 µg/mL) | MIC99 [3]: 1.39 µM (≈ 0.472 µg/mL)

Sc1nnc(-c2cc(Br)co2)o1
IC50 [1]: 35.5 µg/mL (≈ 144 µM) | selectivity ratio [2]: 25.6 | MIC [3]: 1.5 µg/mL (≈ 6.07 µM)

CC(=O)N1/C(=C/c2ccc(-c3ccc(F)cc3)cc2)C(=O)c2ccccc21
CC50 [14]: 9 µM | MIC90 [3]: 1.26 µM (≈ 0.45 µg/mL) | MIC99 [3]: 1.98 µM (≈ 0.708 µg/mL)
